Results published in ChEMBL document CHEMBL1201862, “PubChem BioAssay data set” (2004).
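Method: 48-hour compound exposure of cells in 96-well plates, five concentrations, linear interpolation of endpoints. GI50 is the concentration that inhibits growth by half.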 Activity calls are given as the source filed them. Rule as the data show it: active = GI50 up to about 1.1 µM and inactive = higher.

Experiments:
Test in all cases: DTP human tumour cell line panel, 48 h
[1] = test system: SNB-19
[2] = test system: SN12C
[3] = test system: NCI-H522
[4] = test system: SF-539
[5] = test system: ACHN
[6] = test system: LOX IMVI
[7] = test system: HCT-116
[8] = test system: NCI-H226
[9] = test system: EKVX
[10] = test system: SW-620
[11] = test system: A498
[12] = test system: UACC-62
[13] = test system: MOLT-4
[14] = test system: OVCAR-5
[15] = test system: CAKI-1
[16] = test system: 786-0
[17] = test system: SR

Measured: GI50

COc1ccc(O)cc1C(O)c1ccccc1 (stereo unspecified)
inactive: [1] > 100 µM | [2] > 100 µM | [3] > 100 µM | [4] > 100 µM | [5] > 100 µM | [6] > 100 µM | [7] > 100 µM | [8] > 100 µM | [9] > 100 µM | [10] > 100 µM | [11] > 100 µM | [12] > 100 µM | [13] > 100 µM | [14] > 100 µM | [15] > 100 µM | [16] > 100 µM

C[C@]12CCC(=O)C(O)=C1CC[C@@H]1C2CC[C@]2(C)Nc3c(cnn3-c3ccccc3)CC12 (stereo partly specified)
inactive: [4] 67.6 µM | [5] > 100 µM | [7] 28.2 µM | [8] 64.3 µM | [9] > 100 µM | [10] > 100 µM | [11] > 100 µM | [12] 77.6 µM | [13] 32.6 µM | [14] > 100 µM | [15] 56.9 µM | [16] > 100 µM

c1ccc2c(c1)CCCc1cc3ccccc3nc1-2
inactive: [1] > 100 µM | [2] > 100 µM | [3] 82.4 µM | [4] > 100 µM | [5] > 100 µM | [7] > 100 µM | [9] > 100 µM | [10] > 100 µM | [11] 79.4 µM | [12] > 100 µM | [13] 57.5 µM | [14] > 100 µM | [15] > 100 µM | [16] > 100 µM

CC(C)=CC1C[C@H](C2CC=C3C2(C)CCC2[C@@]3(C)C(=O)CC3[C@]2(C)C=CC(=O)[C@]3(C)CO)CO1 (stereo partly specified)
inactive: [1] 19 µM | [2] 20.3 µM | [3] 2.73 µM | [4] 4.57 µM | [5] 13.2 µM | [6] 3.76 µM | [7] 3.37 µM | [9] 26.2 µM | [17] 3.02 µM | [10] 4.28 µM | [11] 8.81 µM | [12] 11.8 µM | [13] 2.7 µM | [14] 21 µM | [15] 23.9 µM | [16] 5.96 µM

O=CC1CCC=CC1NC(=O)OCc1ccccc1 (stereo unspecified)
inactive: [2] 35 µM | [3] > 100 µM | [4] 23 µM | [5] > 100 µM | [6] 48.4 µM | [7] 19.1 µM | [8] > 100 µM | [9] > 100 µM | [17] 30.7 µM | [10] 37.2 µM | [12] 42.5 µM | [13] 44.5 µM | [14] > 100 µM | [15] 34.4 µM | [16] 33.8 µM

NC(CCCNCc1ccccc1O)C(=O)O (stereo unspecified)
inactive: [1] > 100 µM | [2] > 100 µM | [3] > 100 µM | [4] > 100 µM | [5] > 100 µM | [6] > 100 µM | [7] > 100 µM | [8] > 100 µM | [9] > 100 µM | [10] > 100 µM | [11] > 100 µM | [12] > 100 µM | [13] > 100 µM | [14] > 100 µM | [15] > 100 µM | [16] > 100 µM

O=C(NCCO)c1ccc([N+](=O)[O-])cc1
inactive: [1] > 100 µM | [2] > 100 µM | [3] > 100 µM | [4] > 100 µM | [6] > 100 µM | [8] > 100 µM | [9] > 100 µM | [10] > 100 µM | [11] > 100 µM | [12] > 100 µM | [13] > 100 µM | [15] > 100 µM | [16] > 100 µM

C=CC(=O)Nc1ccccc1CC(c1c[nH]c2ccccc12)c1c[nH]c2ccccc12
inactive: [1] 17.9 µM | [2] 16.3 µM | [3] 22.8 µM | [4] 21.3 µM | [6] 18.5 µM | [8] 21.3 µM | [9] 17.5 µM | [10] 20.2 µM | [12] 16.6 µM | [13] 19.5 µM | [15] 18.2 µM | [16] 18.8 µM

CCN(CC)CCN1CCc2c([nH]c3ccccc23)C1c1cccnc1 (stereo unspecified)
inactive: [1] > 100 µM | [2] > 100 µM | [3] > 100 µM | [4] > 100 µM | [5] > 100 µM | [6] > 100 µM | [7] > 100 µM | [9] > 100 µM | [17] > 100 µM | [10] > 100 µM | [11] > 100 µM | [12] > 100 µM | [13] > 100 µM | [14] > 100 µM | [15] > 100 µM | [16] > 100 µM

C/C(CC(=O)Nc1ccc([N+](=O)[O-])cc1)=N\Nc1ccc([N+](=O)[O-])cc1[N+](=O)[O-]
inactive: [3] 25.9 µM | [4] 41 µM | [5] 10.8 µM | [6] 10.7 µM | [7] 59.7 µM | [8] 52.7 µM | [9] > 100 µM | [10] > 100 µM | [11] 59.8 µM | [12] 49 µM | [13] 13.1 µM | [14] > 100 µM | [16] > 100 µM

CC(=O)SC(SC(C)=O)SC(C)=O
inactive: [1] > 100 µM | [2] > 100 µM | [3] 20.7 µM | [4] > 100 µM | [5] > 100 µM | [6] 58.5 µM | [7] > 100 µM | [8] > 100 µM | [9] > 100 µM | [10] > 100 µM | [11] > 100 µM | [12] 84.1 µM | [13] 43.9 µM | [14] > 100 µM | [16] > 100 µM

Cc1ccc(-c2cc(=O)c3cc(C)c(C)c(C(=O)O)c3o2)cc1N
inactive: [1] > 100 µM | [2] > 100 µM | [3] > 100 µM | [4] > 100 µM | [5] > 100 µM | [6] > 100 µM | [7] > 100 µM | [8] > 100 µM | [9] > 100 µM | [10] > 100 µM | [12] > 100 µM | [13] > 100 µM | [14] > 100 µM | [15] > 100 µM | [16] > 100 µM

Cc1cc2c(=O)c3ccccc3[nH]c2c(C(=O)O)c1C
inactive: [1] > 100 µM | [2] > 100 µM | [4] > 100 µM | [5] > 100 µM | [7] 76 µM | [9] 66.5 µM | [17] > 100 µM | [10] > 100 µM | [11] > 100 µM | [12] > 100 µM | [13] > 100 µM | [15] > 100 µM | [16] > 100 µM

CCC(=C(c1ccc(OCc2ccccc2)cc1)c1ccc(OCc2ccccc2)cc1)c1ccc(OC)cc1
inactive: [1] > 100 µM | [2] > 100 µM | [3] > 100 µM | [4] > 100 µM | [5] > 100 µM | [6] > 100 µM | [7] > 100 µM | [8] > 100 µM | [9] > 100 µM | [17] > 100 µM | [10] > 100 µM | [12] > 100 µM | [13] > 100 µM | [14] > 100 µM | [15] > 100 µM | [16] > 100 µM

C=CCC1=C(C)C[C@@H]2CCC(=O)C=C12
inactive: [1] > 100 µM | [2] > 100 µM | [3] > 100 µM | [4] > 100 µM | [5] > 100 µM | [6] > 100 µM | [7] > 100 µM | [9] > 100 µM | [10] > 100 µM | [11] > 100 µM | [12] > 100 µM | [13] > 100 µM | [14] > 100 µM | [15] > 100 µM | [16] > 100 µM

CCOC(=O)C(C(=O)OCC)=C1C=C(c2ccccc2)c2ccccc21
inactive: [1] > 100 µM | [2] > 100 µM | [4] 62.7 µM | [5] 41 µM | [6] 28.8 µM | [7] 48.9 µM | [8] 78.9 µM | [9] > 100 µM | [10] 89.3 µM | [11] 13.4 µM | [12] > 100 µM | [13] 30.5 µM | [14] 38.6 µM | [16] 28.5 µM

CC12OC3(O)C4C5CC(C6C5C3C61)C42 (stereo unspecified)
inactive: [1] > 100 µM | [2] > 100 µM | [3] > 100 µM | [4] > 100 µM | [5] > 100 µM | [7] > 100 µM | [8] > 100 µM | [17] > 100 µM | [10] > 100 µM | [12] > 100 µM | [13] > 100 µM | [15] > 100 µM | [16] 38.3 µM

Brc1cccc(/C=N/C23CC4CC(CC(C4)C2)C3)c1
inactive: [1] > 100 µM | [2] > 100 µM | [3] > 100 µM | [4] > 100 µM | [5] > 100 µM | [6] > 100 µM | [7] > 100 µM | [8] > 100 µM | [9] > 100 µM | [10] > 100 µM | [11] > 100 µM | [12] > 100 µM | [13] > 100 µM | [14] > 100 µM | [15] > 100 µM | [16] > 100 µM

CCCCCCCCC(O)C#CC(N)=O (stereo unspecified)
inactive: [1] 11.8 µM | [2] 7.59 µM | [4] 12.5 µM | [5] 12.4 µM | [6] 11.7 µM | [7] 3.67 µM | [8] 10.8 µM | [9] 11.4 µM | [17] 12.9 µM | [10] 14.1 µM | [11] 16.4 µM | [12] 5.16 µM | [13] 16.9 µM | [14] 26.7 µM | [15] 8.67 µM | [16] 12.7 µM
